Measured values taken from ChEMBL document CHEMBL3352011, “Identification of novel 4-anilinoquinazoline derivatives as potent EGFR inhibitors both under normoxia and hypoxia” (Bioorg Med Chem, 2014).

Key:
HT-29 [1] = test: cells; type: functional, cell-based; conditions: Homo sapiens, HT-29, 72 h
Description: Antiproliferative activity against human HT-29 cells assessed as inhibition of cell proliferation under normoxia conditions after 72 hrs by SRB assay

[2] = target: Epidermal growth factor receptor (Homo sapiens, UniProt P00533);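 note: Wild-type EGFR enzyme inhibition, measured with a Z'-Lyte kinase assay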
Description: Inhibition of wild type EGFR (unknown origin) by Z'-Lyte kinase assay

A549 [3] = test: cells; type: functional, cell-based; conditions: Homo sapiens, A549, 72 h
Description: Antiproliferative activity against human A549 cells assessed as inhibition of cell proliferation under normoxia conditions after 72 hrs by SRB assay

A549 [4] = test: cells; type: functional, cell-based; conditions: Homo sapiens, A549, 72 h; remark: listed apart in the source
Description: Antiproliferative activity against human A549 cells assessed as inhibition of cell proliferation under hypoxia conditions after 72 hrs by SRB assay

HT-29 [5] = test: cells; type: functional, cell-based; conditions: Homo sapiens, HT-29, 72 h; remark: listed apart in the source
Description: Antiproliferative activity against human HT-29 cells assessed as inhibition of cell proliferation under hypoxia conditions after 72 hrs by SRB assay

[6] = Drug metabolism in mouse liver microsomes at 5 uM in presence of NADPH incubated for 30 mins under normoxia conditions by HPLC method; type: ADME; conditions: read-out: Drug metabolism
[7] = Bioreductive drug activation in pH 7.4 PBS solution assessed as formation of hydroxylamino-imidazole at 4.2 umol incubated for 6 hrs in presence of cysteine and zinc dust by HPLC-Q-ToF-MS method
[8] = Bioreductive drug activation in pH 7.4 PBS solution assessed as formation of imidazole radical at 4.2 umol incubated for 6 hrs in presence of cysteine and zinc dust by HPLC-Q-ToF-MS method
A549 [9] = test: Induction of apoptosis in human A549 cells at 10 uM under normoxia conditions after 72 hrs by annexin VFITC/propidium iodide staining based flow cytometry (reference value: 3.94%); type: functional
[10] = Drug metabolism in mouse liver microsomes at 5 uM in presence of NADPH incubated for 30 mins under hypoxia conditions by HPLC method; type: ADME; conditions: read-out: Drug metabolism
A549 [11] = test: Induction of apoptosis in human A549 cells at 10 uM under hypoxia conditions after 72 hrs by annexin VFITC/propidium iodide staining based flow cytometry (reference value: 4.7%); type: functional

Epidermal growth factor receptor, sequence (P00533 whole entry): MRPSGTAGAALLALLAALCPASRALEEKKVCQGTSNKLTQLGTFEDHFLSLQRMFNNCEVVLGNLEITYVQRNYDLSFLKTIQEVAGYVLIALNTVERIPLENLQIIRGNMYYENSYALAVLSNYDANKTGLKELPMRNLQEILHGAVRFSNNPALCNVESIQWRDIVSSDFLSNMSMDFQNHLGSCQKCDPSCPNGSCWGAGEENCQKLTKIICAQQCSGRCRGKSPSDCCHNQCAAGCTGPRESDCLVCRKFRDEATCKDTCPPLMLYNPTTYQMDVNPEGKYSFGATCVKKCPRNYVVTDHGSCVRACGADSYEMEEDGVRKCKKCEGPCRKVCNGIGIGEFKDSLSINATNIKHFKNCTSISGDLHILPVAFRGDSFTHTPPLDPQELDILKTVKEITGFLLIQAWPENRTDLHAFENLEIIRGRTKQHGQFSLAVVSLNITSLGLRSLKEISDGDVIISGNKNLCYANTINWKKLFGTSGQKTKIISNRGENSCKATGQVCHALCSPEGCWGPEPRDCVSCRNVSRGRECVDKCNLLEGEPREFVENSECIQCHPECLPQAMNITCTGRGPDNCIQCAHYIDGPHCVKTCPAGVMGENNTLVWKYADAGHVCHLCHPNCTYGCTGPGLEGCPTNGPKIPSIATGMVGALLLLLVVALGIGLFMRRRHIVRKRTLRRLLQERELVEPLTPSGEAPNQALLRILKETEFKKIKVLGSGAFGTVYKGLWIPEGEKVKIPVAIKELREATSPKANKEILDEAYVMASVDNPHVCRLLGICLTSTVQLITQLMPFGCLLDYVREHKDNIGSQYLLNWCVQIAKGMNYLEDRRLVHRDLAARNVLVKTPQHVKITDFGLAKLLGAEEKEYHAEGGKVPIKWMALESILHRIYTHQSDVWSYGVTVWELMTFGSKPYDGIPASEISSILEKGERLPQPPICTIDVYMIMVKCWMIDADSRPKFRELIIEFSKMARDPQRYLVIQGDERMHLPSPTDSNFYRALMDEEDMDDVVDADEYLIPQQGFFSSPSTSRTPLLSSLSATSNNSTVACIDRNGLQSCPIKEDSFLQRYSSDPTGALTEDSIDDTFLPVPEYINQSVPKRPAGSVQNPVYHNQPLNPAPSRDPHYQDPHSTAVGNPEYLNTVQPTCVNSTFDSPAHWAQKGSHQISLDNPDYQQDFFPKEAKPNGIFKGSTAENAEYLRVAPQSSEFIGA

`COc1cc2c(Nc3ccc(F)c(Cl)c3)ncnc2cc1OCCCCn1ccnc1[N+](=O)[O-]` showed an IC50 (HT-29 [1]) of 1.54 µM, an IC50 [2] of 0.00031 µM and an IC50 (A549 [3]) of 2.67 µM. For the same molecule, the IC50 (A549 [4]) was 1.41 µM and the IC50 (HT-29 [5]) was 0.67 µM.
With `COc1cc2c(Nc3ccc(OCc4cccc(F)c4)c(Cl)c3)ncnc2cc1OCCCn1ccnc1[N+](=O)[O-]` the IC50 (HT-29 [1]) was 3.79 µM, the IC50 [2] was 0.0305 µM and the IC50 (A549 [3]) was 3.97 µM. For the same molecule, the IC50 (A549 [4]) was 1.52 µM and the IC50 (HT-29 [5]) was 0.94 µM.
With `COc1cc2c(Nc3cccc(Br)c3)ncnc2cc1OCCCCCn1ccnc1[N+](=O)[O-]` the IC50 (HT-29 [1]) was 5.05 µM, the IC50 [2] was 0.00033 µM and the IC50 (A549 [3]) was 8.78 µM. It also gave an IC50 (A549 [4]) of 8.42 µM and an IC50 (HT-29 [5]) of 2.54 µM.
With `C#Cc1cccc(Nc2ncnc3cc(OCCOCCn4ccnc4[N+](=O)[O-])c(OC)cc23)c1` the IC50 (HT-29 [1]) was 8.77 µM, the IC50 [2] was 0.00054 µM and the IC50 (A549 [3]) was 9.77 µM. It also gave an IC50 (A549 [4]) of 6.43 µM and an IC50 (HT-29 [5]) of 6.04 µM.
With `COc1cc2c(Nc3ccc(OCc4cccc(F)c4)c(Cl)c3)ncnc2cc1OCCOCCn1ccnc1[N+](=O)[O-]` the IC50 (HT-29 [1]) was 7.64 µM, the IC50 [2] was 0.0201 µM and the IC50 (A549 [3]) was 5.06 µM. It also gave an IC50 (A549 [4]) of 6.23 µM and an IC50 (HT-29 [5]) of 2.59 µM.
Molecule `C#Cc1cccc(Nc2ncnc3cc(OCCCCn4ccnc4[N+](=O)[O-])c(OC)cc23)c1` has an IC50 (HT-29 [1]) of 2.52 µM, an IC50 [2] of 0.00026 µM and an IC50 (A549 [3]) of 2.21 µM. For the same molecule, the IC50 (A549 [4]) was 1.08 µM and the IC50 (HT-29 [5]) was 0.59 µM.
`COc1cc2c(Nc3ccc(OCc4cccc(F)c4)c(Cl)c3)ncnc2cc1OCCCCCCn1ccnc1[N+](=O)[O-]` showed an IC50 (HT-29 [1]) greater than 50 µM, an IC50 [2] of 0.0355 µM and an IC50 (A549 [3]) greater than 50 µM. For the same molecule, the IC50 (A549 [4]) was greater than 50 µM and the IC50 (HT-29 [5]) was greater than 50 µM.
`COc1cc2c(Nc3cccc(Br)c3)ncnc2cc1OCCCCn1ccnc1[N+](=O)[O-]` showed an IC50 (HT-29 [1]) of 4.02 µM, an IC50 [2] of 0.00037 µM and an IC50 (A549 [3]) of 3.09 µM. The IC50 (A549 [4]) was 1.97 µM and the IC50 (HT-29 [5]) was 1.43 µM.
In the case of `COc1cc2c(Nc3cccc(Br)c3)ncnc2cc1OCCCCCCn1ccnc1[N+](=O)[O-]`, the IC50 (HT-29 [1]) is reported as 10.5 µM, the IC50 [2] is reported as 0.00078 µM and the IC50 (A549 [3]) is reported as 30.2 µM. For the same molecule, the IC50 (A549 [4]) was 20.2 µM and the IC50 (HT-29 [5]) was 4.3 µM.
For `COc1cc2c(Nc3cccc(Br)c3)ncnc2cc1OCCCn1ccnc1[N+](=O)[O-]`, the IC50 (HT-29 [1]) was 10.9 µM, the IC50 [2] was 0.00049 µM and the IC50 (A549 [3]) was 13.5 µM. It also gave an IC50 (A549 [4]) of 7.83 µM and an IC50 (HT-29 [5]) of 2.82 µM.
For `COc1cc2c(Nc3ccc(OCc4cccc(F)c4)c(Cl)c3)ncnc2cc1OCCCCn1ccnc1[N+](=O)[O-]`, the IC50 (HT-29 [1]) was 4.49 µM, the IC50 (A549 [3]) was 10.5 µM and the IC50 (A549 [4]) was 8.69 µM. For the same molecule, the IC50 (HT-29 [5]) was 2.27 µM.
`COc1cc2c(Nc3ccc(F)c(Cl)c3)ncnc2cc1OCCCCCn1ccnc1[N+](=O)[O-]` gave an IC50 (HT-29 [1]) of 4.08 µM, an IC50 (A549 [3]) of 4.26 µM and an IC50 (A549 [4]) of 1.74 µM. The IC50 (HT-29 [5]) was 1.03 µM.
For `C#Cc1cccc(Nc2ncnc3cc(OCCCn4ccnc4[N+](=O)[O-])c(OC)cc23)c1`, the IC50 (HT-29 [1]) was 3.17 µM, the IC50 (A549 [3]) was 2.31 µM and the IC50 (A549 [4]) was 1.17 µM.
With `COc1cc2c(Nc3cccc(Br)c3)ncnc2cc1OCCOCCn1ccnc1[N+](=O)[O-]` the IC50 (HT-29 [1]) was 10.8 µM, the IC50 [2] was 0.00082 µM and the IC50 (A549 [3]) was 13 µM. It also gave an IC50 (A549 [4]) of 10.1 µM and an IC50 (HT-29 [5]) of 3.44 µM.
Molecule `C#Cc1cccc(Nc2ncnc3cc(OCCCCCCn4ccnc4[N+](=O)[O-])c(OC)cc23)c1` has an IC50 (HT-29 [1]) of 4.5 µM, an IC50 [2] of 0.00057 µM and an IC50 (A549 [3]) of 10.3 µM. The IC50 (A549 [4]) was 2.7 µM and the IC50 (HT-29 [5]) was 1.37 µM.
With `C#Cc1cccc(Nc2ncnc3cc(OCCCCCn4ccnc4[N+](=O)[O-])c(OC)cc23)c1` the IC50 (HT-29 [1]) was 1.31 µM, the metabolised at 0.5 h, 5 µM [6] was less than 10% and the Drug metabolism [7] was “Metabolite detected”. For the same molecule, the IC50 [2] was 0.00047 µM, the Drug metabolism [8] was “Metabolite detected” and the IC50 (A549 [3]) was 0.77 µM. It also gave an IC50 (A549 [4]) of 0.18 µM, an Activity (A549 [9]) of 12.46% and a metabolised at 0.5 h, 5 µM [10] greater than 80%. For the same molecule, the Activity (A549 [11]) was 26.15% and the IC50 (HT-29 [5]) was 0.28 µM.
In the case of `COc1cc2c(Nc3ccc(F)c(Cl)c3)ncnc2cc1OCCCn1ccnc1[N+](=O)[O-]`, the IC50 (HT-29 [1]) is reported as 6.14 µM, the IC50 [2] is reported as 0.00077 µM and the IC50 (A549 [3]) is reported as 5.91 µM. The IC50 (A549 [4]) was 4.31 µM and the IC50 (HT-29 [5]) was 2.06 µM.
For `Nc1n[n+]([O-])c2ccccc2[n+]1[O-]` [TIRAPAZAMINE], the IC50 (HT-29 [1]) was greater than 50 µM, the IC50 (A549 [3]) was greater than 50 µM and the IC50 (A549 [4]) was 6.9 µM.
In the case of `COc1cc2c(Nc3ccc(OCc4cccc(F)c4)c(Cl)c3)ncnc2cc1OCCCCCn1ccnc1[N+](=O)[O-]`, the IC50 (HT-29 [1]) is reported as 14.1 µM, the IC50 [2] is reported as 0.0166 µM and the IC50 (A549 [3]) is reported as 19.9 µM. For the same molecule, the IC50 (A549 [4]) was 14.4 µM and the IC50 (HT-29 [5]) was 5.04 µM.
For `COc1cc2c(Nc3ccc(F)c(Cl)c3)ncnc2cc1OCCCCCCn1ccnc1[N+](=O)[O-]`, the IC50 (HT-29 [1]) was 5.63 µM, the IC50 [2] was 0.00144 µM and the IC50 (A549 [3]) was 13.4 µM. The IC50 (A549 [4]) was 6.52 µM and the IC50 (HT-29 [5]) was 1.84 µM.
For `COc1cc2c(Nc3ccc(F)c(Cl)c3)ncnc2cc1OCCOCCn1ccnc1[N+](=O)[O-]`, the IC50 (HT-29 [1]) was 9.86 µM, the IC50 [2] was 0.00032 µM and the IC50 (A549 [3]) was 12.9 µM. For the same molecule, the IC50 (A549 [4]) was 7.64 µM and the IC50 (HT-29 [5]) was 5.52 µM.
